Reference: publication PMC7663003 (2020)
One block for each compound: values may come before it.

How the values were obtained:
Assay in all cases: fluorescence titration
[1] = test system: 27Myc (DNA, G4) TGGGGAGGGTGGGGAGGGTGGGGAAGG; conditions: 153 mM Na+, 2.7 mM K+, 2.5 mM Mg2+, pH 7.4, 25 °C, dye 3 μM, apparent
[2] = test system: dsDNA (DNA, duplex) GGGTTACTACGAACTGG/CCAGTTCGTAGTAACCC; conditions: 153 mM Na+, 2.7 mM K+, 2.5 mM Mg2+, pH 7.4, 25 °C, dye 3 μM, apparent
[3] = test system: 26Tel (DNA, G4) TTAGGGTTAGGGTTAGGGTTAGGGTT; conditions: 153 mM Na+, 2.7 mM K+, 2.5 mM Mg2+, pH 7.4, 25 °C, dye 3 μM, apparent
[4] = test system: 20Src (DNA, G4) GGGCGGCGGGCTGGGCGGGG; conditions: 2.5 mM Mg2+, pH 7.4, 25 °C, dye 3 μM, oligonucleotide to 15 μM, apparent, n.d., assumed
[5] = test system: 18Ras (RNA, G4) GGGAGGGGCGGGUCUGGG; conditions: 140 mM K+, 10 mM Na+, 2.5 mM Mg2+; PBS140KM (phosphate) pH 7.4, 25 °C; 3 μM dye; apparent
[6] = test system: 18Ras (RNA, G4) GGGAGGGGCGGGUCUGGG; conditions: 2.5 mM Mg2+, pH 7.4, 25 °C, dye 3 μM, apparent
[7] = test system: 22AG (DNA, G4) AGGGTTAGGGTTAGGGTTAGGG; conditions: 2.5 mM Mg2+, 3 μM dye, apparent
[8] = test system: 22Kit (DNA, G4) AGGGAGGGCGCTGGGAGGAGGG; conditions: 140 mM K+, 10 mM Na+, 2.5 mM Mg2+; PBS140KM (phosphate) pH 7.4, 25 °C; 3 μM dye; apparent
[9] = test system: 26Tel (DNA, G4) TTAGGGTTAGGGTTAGGGTTAGGGTT; conditions: 2.5 mM Mg2+, 3 μM dye, apparent
[10] = test system: 27Myc (DNA, G4) TGGGGAGGGTGGGGAGGGTGGGGAAGG; conditions: 140 mM K+, 10 mM Na+, 2.5 mM Mg2+; PBS140KM (phosphate) pH 7.4, 25 °C; 3 μM dye; apparent
[11] = test system: 22Kit (DNA, G4) AGGGAGGGCGCTGGGAGGAGGG; conditions: 153 mM Na+, 2.7 mM K+, 2.5 mM Mg2+, pH 7.4, 25 °C, dye 3 μM, apparent
[12] = test system: 22AG (DNA, G4) AGGGTTAGGGTTAGGGTTAGGG; conditions: 2.5 mM Mg2+, pH 7.4, 25 °C, dye 3 μM, apparent
[13] = test system: 20Src (DNA, G4) GGGCGGCGGGCTGGGCGGGG; conditions: 2.5 mM Mg2+, 3 μM dye, apparent
[14] = test system: dsDNA (DNA, duplex) GGGTTACTACGAACTGG/CCAGTTCGTAGTAACCC; conditions: 140 mM K+, 10 mM Na+, 2.5 mM Mg2+; PBS140KM (phosphate) pH 7.4, 25 °C; 3 μM dye; apparent
[15] = PBS153NM, oligonucleotide to 15 μM, n.d., assumed
[16] = 153 mM Na+, 2.7 mM K+, PBS153NM
[17] = 153 mM Na+, 2.7 mM K+, PBS153NM (phosphate)
[18] = 140 mM K+, 10 mM Na+, PBS140KM (phosphate) pH 7.4, 25 °C
[19] = 140 mM K+, 10 mM Na+, PBS140KM, oligonucleotide to 15 μM, n.d., assumed
[20] = 153 mM Na+, 2.7 mM K+, PBS153NM, oligonucleotide to 15 μM, n.d., assumed
[21] = 153 mM Na+, 2.7 mM K+, PBS153NM (phosphate) pH 7.4, 25 °C

SMILES: Cc1ccc2c(c1)sc(-c1ccc(N(C)C)cc1)[n+]2CCN
Kd [1, 15]: > 40 µM | Kd [2, 15]: > 40 µM | Kd [3, 15]: > 40 µM | Kd ([4]; 140 mM K+, 10 mM Na+, PBS140KM): > 40 µM | Kd [4, 16]: > 40 µM | Kd [6, 19]: > 40 µM | Kd [6, 20]: > 40 µM | Kd [8]: 8.9 ± 3.5 µM | Kd [9, 18]: 9.7 ± 5.5 µM | Kd [12, 19]: > 40 µM | Kd [12, 17]: 23.6 ± 9.1 µM | Kd [11, 15]: > 40 µM

SMILES: Cc1ccc2c(c1)sc(-c1ccc(N(C)C)cc1)[n+]2CCNC(=O)COCCOCCN
Kd ([1]; PBS153NM (phosphate)): 10.8 ± 1.3 µM | Kd [2, 15]: > 40 µM | Kd ([3]; PBS153NM (phosphate)): 34.3 ± 4.0 µM | Kd [4, 16]: > 40 µM | Kd [5]: 11.8 ± 0.6 µM | Kd [6, 17]: 15.5 ± 1.7 µM | Kd [13, 18]: 38.6 ± 5.9 µM | Kd [7, 18]: 11.8 ± 1.4 µM | Kd [8]: 20.5 ± 1.4 µM | Kd [9, 18]: 5.3 ± 0.4 µM | Kd [10]: 8.7 ± 0.7 µM | Kd [12, 20]: > 40 µM | Kd [11, 15]: > 40 µM

SMILES: Cc1ccc2c(c1)sc(-c1ccc(N(C)C)cc1)[n+]2CCO
Kd ([1]; PBS153NM (phosphate)): 14.1 ± 1.5 µM | Kd [2, 15]: > 40 µM | Kd [3, 15]: > 40 µM | Kd ([4]; 140 mM K+, 10 mM Na+, PBS140KM): > 40 µM | Kd [4, 16]: > 40 µM | Kd [5]: 25.0 ± 3.1 µM | Kd [6, 17]: 28.1 ± 4.0 µM | Kd [7, 18]: 20.1 ± 1.5 µM | Kd [8]: 34.9 ± 6.6 µM | Kd [9, 18]: 11.1 ± 1.5 µM | Kd [10]: 19.9 ± 0.9 µM | Kd [12, 20]: > 40 µM | Kd ([11]; PBS153NM (phosphate)): 12.3 ± 1.8 µM

Next, values leading:

Kd ([1]; PBS153NM (phosphate)): 13.5 ± 5.1 µM | Kd [2, 15]: > 40 µM | Kd ([3]; PBS153NM (phosphate)): 29.5 ± 5.6 µM | Kd ([4]; 140 mM K+, 10 mM Na+, PBS140KM): > 40 µM | Kd [4, 16]: > 40 µM | Kd [5]: 19.0 ± 2.9 µM | Kd [6, 17]: 15.3 ± 1.6 µM | Kd [7, 18]: 5.0 ± 0.5 µM | Kd [8]: 9.9 ± 1.2 µM | Kd [9, 18]: 4.0 ± 0.4 µM | Kd [10]: 6.9 ± 0.8 µM | Kd ([11]; PBS153NM (phosphate)): 4.8 ± 0.8 µM
SMILES: Cc1ccc2c(c1)sc(-c1ccc(N(C)C)cc1)[n+]2C

Kd ([1]; PBS153NM (phosphate)): 29.1 ± 2.5 µM | Kd [2, 15]: > 40 µM | Kd [3, 15]: > 40 µM | Kd [4, 16]: > 40 µM | Kd [5]: 15.3 ± 1.9 µM | Kd [6, 17]: 16.3 ± 1.8 µM | Kd [13, 18]: 20.2 ± 2.3 µM | Kd [8]: 36.6 ± 4.4 µM | Kd [9, 18]: 23.9 ± 3.1 µM | Kd [10]: 13.4 ± 0.8 µM | Kd [12, 19]: > 40 µM | Kd [12, 17]: 20.3 ± 9.9 µM | Kd [11, 15]: > 40 µM
SMILES: Cc1ccc2c(c1)sc(-c1ccc(N(C)C)cc1)[n+]2CCNC(=O)COCC(=O)NCCOCCOCCOCCOCCOCCOCCOCCOCCOCCOCCOCCN

Kd ([1]; PBS153NM (phosphate)): 5.3 ± 0.8 µM | Kd ([2]; PBS153NM (phosphate)): 9.4 ± 1.0 µM | Kd [5]: 12.8 ± 1.9 µM | Kd [6, 17]: 14.7 ± 3.2 µM | Kd [13, 18]: 18.8 ± 2.4 µM | Kd [13, 21]: 4.1 ± 0.5 µM | Kd [7, 18]: 5.4 ± 1.0 µM | Kd [7, 21]: 8.2 ± 0.8 µM | Kd [8]: 6.8 ± 0.6 µM | Kd [14]: 16.0 ± 1.0 µM | Kd [9, 18]: 2.4 ± 0.4 µM | Kd [9, 21]: 4.6 ± 0.3 µM | Kd [10]: 6.8 ± 0.9 µM | Kd ([11]; PBS153NM (phosphate)): 7.4 ± 3.9 µM
SMILES: Cc1ccc2c(c1)sc(-c1ccc(N(C)C)cc1)[n+]2CCNC(=O)NCCCNCCCCNCCCN
